Reference: PubChem BioAssay AID328 (DTP/NCI, 2004)
Values joined by “and” are separate entries in the source; they are usually repeats but may differ in a detail not shown here. Identical values can stand only once. Inconclusive results and toxic doses are left out.

Test system: BDF1 mice, P388 leukemia ip, median survival T/C
Test: NCI In Vivo Anticancer Drug Screen. Data for tumor model P388 Leukemia (intraperitoneal) in B6D2F1 (BDF1) mice
Details: endpoint: median survival time, higher = longer survival
How it was run: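 Steps: implant the tumour, treat one group with compound and another with vehicle, record survival, then divide treated by control.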

[1] = dose: 6.25 mg/kg/injection, schedule: Q01DX009 (ip), vehicle: saline
[2] = dose: 12.5 mg/kg/injection, schedule: Q01DX009 (ip), vehicle: saline
[3] = dose: 6.25 mg/kg/injection, schedule: Q01DX009 (ip), vehicle: saline with Tween-80
[4] = dose: 12.5 mg/kg/injection, schedule: Q01DX009 (ip), vehicle: saline with Tween-80
[5] = dose: 25.0 mg/kg/injection, schedule: Q01DX009 (ip), vehicle: saline with Tween-80
[6] = dose: 25.0 mg/kg/injection, schedule: Q04DX003 (ip), vehicle: saline with Tween-80
[7] = dose: 50.0 mg/kg/injection, schedule: Q01DX009 (ip), vehicle: saline with Tween-80
[8] = dose: 50.0 mg/kg/injection, schedule: Q04DX003 (ip), vehicle: saline with Tween-80
[9] = dose: 100.0 mg/kg/injection, schedule: Q04DX003 (ip), vehicle: saline with Tween-80
[10] = dose: 200.0 mg/kg/injection, schedule: Q04DX003 (ip), vehicle: saline with Tween-80

With `C[n+]1ccc(C#N)c2ccccc21` the T/C (dose: 1.1 mg/kg/injection, schedule: Q04DX003 (ip), vehicle: saline) was 92 % of control and 100 % of control, the T/C (dose: 1.71 mg/kg/injection, schedule: Q04DX003 (ip), vehicle: saline) was 95 % of control and the T/C (dose: 2.5 mg/kg/injection, schedule: Q04DX003 (ip), vehicle: saline) was 88 % of control and 95 % of control. The T/C (dose: 3.12 mg/kg/injection, schedule: Q01DX009 (ip), vehicle: saline) was 104 % of control, the T/C (dose: 3.43 mg/kg/injection, schedule: Q04DX003 (ip), vehicle: saline) was 120 % of control and the T/C [1] was 118 % of control. For the same compound, the T/C (dose: 6.87 mg/kg/injection, schedule: Q04DX003 (ip), vehicle: saline) was 100 % of control, the T/C (dose: 7.5 mg/kg/injection, schedule: Q04DX003 (ip), vehicle: saline with Tween-80) was 91 % of control and the T/C (dose: 11.0 mg/kg/injection, schedule: Q01DX009 (ip), vehicle: saline) was 120 % of control. For the same compound, the T/C [2] was 118 % of control and the T/C (dose: 15.0 mg/kg/injection, schedule: Q04DX003 (ip), vehicle: saline with Tween-80) was 104 % of control.
In the case of `O=c1c(N=Nc2ccccc2)c(O)n(-c2ccccc2)c(=S)n1-c1ccccc1`, the T/C (dose: 25.0 mg/kg/injection, schedule: Q01DX001 (ip), vehicle: saline with Tween-80) is reported as 100 % of control, the T/C (dose: 50.0 mg/kg/injection, schedule: Q01DX001 (ip), vehicle: saline with Tween-80) is reported as 90 % of control and the T/C (dose: 100.0 mg/kg/injection, schedule: Q01DX001 (ip), vehicle: saline with Tween-80) is reported as 95 % of control.
With `COc1ccc2c(c1)CCC(=O)O2` the T/C (dose: 100.0 mg/kg/injection, schedule: Q04DX003 (ip), vehicle: saline sonified) was 91 % of control, the T/C (dose: 200.0 mg/kg/injection, schedule: Q04DX003 (ip), vehicle: saline sonified) was 95 % of control and the T/C (dose: 400.0 mg/kg/injection, schedule: Q04DX003 (ip), vehicle: saline sonified) was 100 % of control.
In the case of `O=C1C=CN(C2OC(CO)C(O)C2O)C(=O)C1` (configuration not stated), the T/C (dose: 22.0 mg/kg/injection, schedule: Q01DX009 (ip), vehicle: saline) is reported as 103 % of control, the T/C (dose: 33.0 mg/kg/injection, schedule: Q01DX009 (ip), vehicle: saline) is reported as 107 % of control and the T/C (dose: 50.0 mg/kg/injection, schedule: Q01DX009 (ip), vehicle: saline) is reported as 87 % of control and 101 % of control (2×). The T/C (dose: 75.0 mg/kg/injection, schedule: Q01DX009 (ip), vehicle: saline) was 110 % of control, the T/C (dose: 100.0 mg/kg/injection, schedule: Q01DX009 (ip), vehicle: saline) was 87 % of control and the T/C (dose: 200.0 mg/kg/injection, schedule: Q01DX009 (ip), vehicle: saline) was 91 % of control. For the same compound, the T/C (dose: 400.0 mg/kg/injection, schedule: Q01DX009 (ip), vehicle: saline) was 100 % of control.
With `CC(C)=CCC/C(C)=C/Cn1cnc2c(ncn2C2OC(CO)C(O)C2O)c1=O` (configuration not stated) the T/C (dose: 12.5 mg/kg/injection, schedule: Q04DX003 (ip), vehicle: saline) was 110 % of control, the T/C (dose: 25.0 mg/kg/injection, schedule: Q04DX003 (ip), vehicle: saline) was 105 % of control and the T/C (dose: 50.0 mg/kg/injection, schedule: Q04DX003 (ip), vehicle: saline) was 114 % of control.
With `CCOC(=O)C(C(=O)OCC)=C(C)OCC` the T/C [3] was 106 % of control, the T/C [4] was 86 % of control and the T/C [5] was 97 % of control. The T/C [6] was 99 % of control, the T/C [7] was 97 % of control and the T/C [8] was 107 % of control. For the same compound, the T/C (dose: 100.0 mg/kg/injection, schedule: Q01DX009 (ip), vehicle: saline with Tween-80) was 106 % of control, the T/C [9] was 90 % of control and the T/C [10] was 107 % of control.
For `O=C(Nc1ccc(C2=NCCN2)cc1)Nc1cccc(NC(=O)Nc2cccc(C3=NCCN3)c2)c1`, the T/C [4] was 150 % of control, the T/C (dose: 16.5 mg/kg/injection, schedule: Q04DX003 (ip), vehicle: saline with Tween-80) was 266 % of control and 170 % of control and the T/C [5] was 105 % of control. The T/C [6] was 250 % of control and 190 % of control and 200 % of control, the T/C (dose: 37.5 mg/kg/injection, schedule: Q04DX003 (ip), vehicle: saline with Tween-80) was 283 % of control and 185 % of control and the T/C [7] was 90 % of control. The T/C [8] was 177 % of control.
With `Cc1noc2nccnc12` the T/C [5] was 95 % of control and the T/C [7] was 95 % of control.
In the case of `C=C(C)C12CC(COC(=O)c3ccccc3)C34OC5(OC1C3C1OC1(CO)C(O)C1(O)C(OC(=O)c3ccccc3)C(C)C(C(C)CCCCCCC5O)C14)O2` (configuration not stated), the T/C (dose: 0.25 mg/kg/injection, schedule: Q01DX009 (ip), vehicle: saline) is reported as 113 % of control, the T/C (dose: 0.5 mg/kg/injection, schedule: Q01DX009 (ip), vehicle: saline) is reported as 122 % of control and the T/C (dose: 0.75 mg/kg/injection, schedule: Q01DX009 (ip), vehicle: saline) is reported as 150 % of control. The T/C (dose: 0.5 micrograms/kg/injection, schedule: Q01DX009 (ip), vehicle: saline + alcohol) was 111 % of control, the T/C (dose: 0.8 micrograms/kg/injection, schedule: Q01DX009 (ip), vehicle: gum acacia) was 100 % of control and the T/C (dose: 0.8 micrograms/kg/injection, schedule: Q01DX009 (ip), vehicle: saline + alcohol) was 124 % of control. For the same compound, the T/C (dose: 0.8 micrograms/kg/injection, schedule: Q01DX009 (ip), vehicle: saline with Tween-80) was 162 % of control, the T/C (dose: 1.0 micrograms/kg/injection, schedule: Q01DX009 (ip), vehicle: saline + alcohol) was 108 % of control and the T/C (dose: 1.6 micrograms/kg/injection, schedule: Q01DX009 (ip), vehicle: saline + alcohol) was 238 % of control. The T/C (dose: 1.6 micrograms/kg/injection, schedule: Q01DX009 (ip), vehicle: saline with Tween-80) was 175 % of control, the T/C (dose: 2.0 micrograms/kg/injection, schedule: Q01DX009 (ip), vehicle: saline + alcohol) was 104 % of control and the T/C (dose: 3.1 micrograms/kg/injection, schedule: Q01DX009 (ip), vehicle: saline + alcohol) was 153 % of control. The T/C (dose: 3.1 micrograms/kg/injection, schedule: Q01DX009 (ip), vehicle: saline with Tween-80) was 175 % of control, the T/C (dose: 6.3 micrograms/kg/injection, schedule: Q01DX009 (ip), vehicle: gum acacia) was 120 % of control and the T/C (dose: 6.3 micrograms/kg/injection, schedule: Q01DX009 (ip), vehicle: saline + alcohol) was 175 % of control. The T/C (dose: 12.5 micrograms/kg/injection, schedule: Q01DX009 (ip), vehicle: gum acacia) was 118 % of control, the T/C (dose: 12.5 micrograms/kg/injection, schedule: Q01DX009 (ip), vehicle: saline + alcohol) was 179 % of control and the T/C (dose: 25.0 micrograms/kg/injection, schedule: Q01DX009 (ip), vehicle: gum acacia) was 120 % of control. For the same compound, the T/C (dose: 50.0 micrograms/kg/injection, schedule: Q01DX009 (ip), vehicle: gum acacia) was 124 % of control.
In the case of `COc1ccc(NC2=CC(=O)C(=O)C=C2Nc2ccc(OC)cc2)cc1`, the T/C (dose: 15.0 mg/kg/injection, schedule: Q01DX009 (ip), vehicle: saline with Tween-80) is reported as 93 % of control, the T/C (dose: 30.0 mg/kg/injection, schedule: Q01DX009 (ip), vehicle: saline with Tween-80) is reported as 93 % of control and the T/C (dose: 60.0 mg/kg/injection, schedule: Q01DX009 (ip), vehicle: saline with Tween-80) is reported as 91 % of control.
`CCOC(=O)c1cc(C)nnc1C(=O)OCC` was tested, and the T/C (dose: 100.0 mg/kg/injection, schedule: Q04DX003 (ip), vehicle: saline) was 95 % of control, the T/C (dose: 200.0 mg/kg/injection, schedule: Q04DX003 (ip), vehicle: saline) was 95 % of control and the T/C (dose: 400.0 mg/kg/injection, schedule: Q04DX003 (ip), vehicle: saline) was 91 % of control.
For `N#[N+]N=c1c(=NN=[N-])c(=O)c2ccccc2c1=O`, the T/C (dose: 3.0 mg/kg/injection, schedule: Q01DX009 (ip), vehicle: saline with Tween-80) was 90 % of control, the T/C (dose: 6.0 mg/kg/injection, schedule: Q01DX009 (ip), vehicle: saline with Tween-80) was 87 % of control and the T/C (dose: 12.0 mg/kg/injection, schedule: Q01DX009 (ip), vehicle: saline with Tween-80) was 95 % of control.
`CC(=O)C1C(=O)C(=O)OC1C` (configuration not stated) was tested, and the T/C (dose: 50.0 mg/kg/injection, schedule: Q01DX009 (ip), vehicle: Klucel (hydroxypropylcellulose) (HPC)) was 109 % of control, the T/C (dose: 100.0 mg/kg/injection, schedule: Q01DX009 (ip), vehicle: Klucel (hydroxypropylcellulose) (HPC)) was 95 % of control and the T/C [9] was 113 % of control. The T/C (dose: 200.0 mg/kg/injection, schedule: Q01DX009 (ip), vehicle: Klucel (hydroxypropylcellulose) (HPC)) was 90 % of control and the T/C [10] was 104 % of control.
In the case of `CC(=O)OC1C=CCC2C(=O)C3=C(C(=O)c4ccccc4C3=O)C(=O)C12` (configuration not stated), the T/C (dose: 3.12 mg/kg/injection, schedule: Q01DX009 (ip), vehicle: saline with Tween-80) is reported as 98 % of control, the T/C [3] is reported as 98 % of control and the T/C [4] is reported as 107 % of control. The T/C [5] was 112 % of control and the T/C [7] was 112 % of control.
In the case of `C[N+]1=C2CCCCCC2=C(N)CC1`, the T/C [1] is reported as 100 % of control, the T/C [2] is reported as 100 % of control and the T/C (dose: 12.5 mg/kg/injection, schedule: Q04DX003 (ip), vehicle: saline sonified) is reported as 91 % of control. The T/C (dose: 25.0 mg/kg/injection, schedule: Q01DX009 (ip), vehicle: saline) was 100 % of control.
